These results are taken from patent US20230150951A1, “2,5- OR 2,6-DISUBSTITUTED HYDROQUINONE DERIVATIVES WITH AT LEAST ONE CARBOXY, SULFO OR AMIDO GROUP USEFUL AS MEDICAMENTS” (OM PHARMA SA, priority 2020, published 2023).

Read-outs that look alike come from different tables or passages of the source.

One test concerns Human neutrophils. The test can be described thus: Inhibition of ROS production in human neutrophils (isoluminol chemiluminescence). It is filed as cell-based. The conditions noted are these: Homo sapiens, Neutrophil, fMLP+TNF-α stimulated PMN. A digest of the protocol: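 Extracellular ROS measured as isoluminol-amplified chemiluminescence following 1 μM fMLP activation on fibrinogen-coated plates, readings every 25 sec over 250 sec minus HBSS/isoluminol background. Beforehand, cells were treated with compounds at 0.1, 0.3, 1, 3 or 10 μM (30 min, 37° C) and TNF-α (20 ng/ml, 10 min); duplicate or triplicate.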

The subject of a further test is IL-1beta. Nature of the test: Cytokine release after LPS induction on human whole blood: IL-1β. It is filed as cell-based. The procedure:
(§1) Aim of this in vitro method is to assess compounds effects on release of a panel of cytokines from whole blood following lipopolysaccharide (LPS) induced inflammatory reaction. Whole blood was incubated with compounds for 1 h prior to LPS induction. Cytokine levels in blood were measured using a multiplex FACS-based panel.
(§2) IC50 values determined for the tested compounds expressed in microM [μM] and the values for the inhibition of cytokines were listed for each compound.
(§3) Effect on cytokines release after LPS induction was performed on the compounds dissolved in DMSO or H2O to reach 10-fold concentrated stock solutions and dissolved in culture media.
(§4) Test system: Whole blood was removed from a single donor (into lithium heparin coated tubes; BD Vacutainer; 367886) and diluted 1:5 with RPMI 1640 (Thermo Fisher, 61870036). Within 30 minutes of sampling, blood was incubated with compounds for 1 h prior to LPS stimulation (O111:B4—Sigma L4391; 10 ng/ml final concentration). Stimulation continued under standard cell culture conditions (37° C. with 5% CO2) overnight (18 h), after which plates were centrifuged and supernatant removed and frozen at −80° C. until used for analyses.
(§5) Dilution of test compounds: 10×concentrated solutions (concerning to the final assay concentrations) of each test compound were prepared with the appropriate solvent (in DMSO or in water). These 10× compound solutions (10 μl) were then added to 90 μl pre-diluted whole blood (whole blood: RPMI1640, 1:5) resulting in the final assay concentration.
(§6) Test method: Diluted whole blood (80 μl) was pre-incubated with compounds (10 μl) to give final assay concentrations of 100, 30, 10, 3, 1, 0.3 and 0.1×10^−6M. Blood was incubated at 37° C. with 5% CO2 for 1 h. LPS was diluted in cell culture media to a concentration of […]; 10 μl was added to the whole blood to give a final concentration of 10 ng/ml. Plates were incubated at 37° C. for 18 h. Plates were centrifuged at 3,000 RPM for 5 minutes at 4° C. and supernatant removed and frozen at −80° C. until FACS analysis was carried out.
(§7) Cytokine release was measured using a custom multiplex system (ELISA Genie) according to manufacturers instructions. Prepared samples were run on an Attune NxT flow cytometer (Thermo Fisher).
(§8) Quantification of cytokine release inhibition: known concentration standards were run as part of the cytokine panel to allow quantification of each cytokine concentration in each sample. This was carried out using FCAP Array v3.0 software.
(§9) Results: The dose response relationship on cytokine release following LPS induction of inflammatory response in whole blood was assessed for all compounds. IC50 values were determined for each compound for a panel of cytokines (GM-CSF, IFN-gamma, IL-1beta, IL-2, IL-4, IL-5, IL-6, IL-8, IL-9, IL-10, IL-12p40, IL-13, IL-17A, IL-17F, IL-18, IL-21, IL-22, IL-33, TGF-beta, TNF-alpha, TNF-beta).

The test system of a further test is IL-17A. Nature of the test: Cytokine release after LPS induction on human whole blood: IL-17A. It is filed as cell-based. The procedure:
as §1, §2, §3, §4, §5, §6, §7, §8, §9

The test system of another test is IL-33. The test can be described thus: Cytokine release after LPS induction on human whole blood: IL-33. Type of test: cell-based. The procedure: as §1, §2, §3, §4, §5, §6, §7, §8, §9
The subject of a further test is TNF-alpha. The test can be described thus: Cytokine release after LPS induction on human whole blood: TNFα. Type of test: cell-based. Here is the method: as §1, §2, §3, §4, §5, §6, §7, §8, §9
Test [1] relates to STZ-induced diabetes model. Nature of the test: STZ-induced diabetic nephropathy, kidney disease and retinopathy model (28 days treatment). As to conditions: for Mean day 0 blood glucose Concentration (mmol/L) (SD) / Mean day 28 blood glucose Concentration (mmol/L) (SD) / Blood BUN / Disease Score (kidney, H&E) / Eye area (retinal flatmount area covered by vasculature) / Trichrome staining (Kidney fibrosis) / Blood CRP / Blood IL-6 / Blood TGF-beta / Blood TNF-alpha / Urine albumine creatinine ratio (ALB:CRE): 15 mg/kg IV, Captopril 50 mg/kg PO; for Blood BUN / Disease Score (kidney, H&E) / Eye area (retinal flatmount area covered by vasculature) / Trichrome staining (Kidney fibrosis) / Blood CRP / Blood IL-6 / Blood TGF-beta / Blood TNF-alpha / Urine albumine creatinine ratio (ALB:CRE): day 28 of treatment (week 9); for Blood CRP / Blood IL-6 / Blood TGF-beta / Blood TNF-alpha: serum; for Urine albumine creatinine ratio (ALB:CRE): urine pooled per group.
Method: A total of 70 female CD-1 mice aged 5-7 weeks weighing approximately 25-30 g were used for the study. These were purchased from Charles River, UK and had 7 days acclimatization period. Animals were housed in IVC cages (up to 5 per cage) with individual mice identified by tail mark. All animals were allowed free access to a standard certified commercial diet and sanitised water during the study. The holding room was maintained under standard conditions: 18-24° C., 55-70% humidity and a 12 h light/dark cycle.
Mice were starved for 6 hours prior to injection. One week after completion of induction glucose levels were monitored and mice with levels less than 15 mml/L (280 mg/gL) were removed from the study as they had not developed the ideal severity of diabetes. Glucose levels were be monitored weekly and 5 weeks after STZ induction biochemical assessment of renal injury was carried out by measuring urine albumin and creatinine levels and confirming they were within the desired range. After successful completion of this stage animals were assigned to treatment groups.
Treatment continued for 4 weeks (28 days) with weekly measurement of blood glucose and urine albumin/creatinine. The study schedule is detailed below looking at weekly (week 5 to 9) blood glucose levels, urine albumin creatinie ratios, and terminal (week 9) blood chemistry and cytokines, kidney histology and eye-retinal leakage.
Urine Albumin: Creatinine (ALB: CRE): Urine was collected weekly and pooled for each treatment group.
ELISAs: At the end of the treatment period blood was collected and processed to serum. Serum levels of CRP, TGF-β, IL-6 and TNF-α were quantified using commercially available ELISA kits, results are shown in Table 56.

Setting [2] is: Homo sapiens, LPS 10 ng/ml, 18 h, read-out: Whole Blood: IL-1β IC50.
Where [3] appears, read: human whole blood, inhibition of LPS induced inflammation, read-out: IC50 IL-1b.
Where [4] appears, read: Homo sapiens, LPS 10 ng/ml, 18 h, read-out: Whole Blood: IL-17A IC50.
The mark [5] stands for this setting: human whole blood, inhibition of LPS induced inflammation, read-out: IC50 IL-17A.
Where [6] appears, read: Homo sapiens, LPS 10 ng/ml, 18 h, read-out: Whole Blood: IL-33 IC50.
Where [7] appears, read: human whole blood, inhibition of LPS induced inflammation, read-out: IC50 IL-33.
[8] abbreviates: Homo sapiens, LPS 10 ng/ml, 18 h, read-out: Whole Blood: TNF α IC50.
[9] abbreviates: human whole blood, inhibition of LPS induced inflammation, read-out: IC50 TNFa.

What is called inhibition is how much of the control response was suppressed. One may read the IC50 as the concentration needed to halve the response being measured. In the test with Human neutrophils, `O=C(O)c1cc(O)c(C(=O)Nc2ccccc2-c2nnn[nH]2)cc1O` [Ia-001a-Tz, 4-(2-(1H-tetrazol-5-yl)phenyl-aminocarbonyl)-2,5-dihydroxybenzoic acid] showed an inhibition at 0.3 µM of 54.3% and an IC50 of 1.54 µM. Also, the IC50 in the test with IL-1beta (setting [2]) was more than 100 µM. Besides, the IC50 in the test on IL-1beta (setting [3]) turned out to be 100 µM. The IC50 with IL-17A (setting [4]) came to 0.11 µM. Further, the IC50 with IL-17A (setting [5]) is 0.11 µM. Besides, the IC50 with IL-33 (setting [6]) is 23.6 µM. The 50% inhibitory concentration (IC50) in the test with IL-33 (setting [7]) was determined as 23.6 µM. Also, the half-inhibitory concentration (IC50) in the test with TNF-alpha (setting [8]) was 0.63 µM. In addition, the half-inhibitory concentration (IC50) in the test on TNF-alpha (setting [9]) amounted to 0.63 µM. In addition, the “Serum CRP” value in test [1] (28 days of treatment, vs vehicle induced controls) is “significantly reduced”. Further, in test [1] (28 days, p<0.05), the “Serum TNF-α” value was “significantly lower than vehicle induced controls”. In test [1], the “Mean day 0 blood glucose Concentration (mmol/L) (SD)” value is 24.9 (7.4) mmol/L; the “Blood BUN” value was determined as 25.3 ± 3.1; the “Disease Score (kidney, H&E)” value came out at 8 ± 3; the “Eye area (retinal flatmount area covered by vasculature)” value amounted to 11.8 ± 1. For the same compound, in test [1], the “Trichrome staining (Kidney fibrosis)” value is on record as 2.6 ± 0.98, the “Blood CRP” value is 5191 ± 993, the “Blood IL-6” value worked out at 112.35 ± 20.01 and the “Blood TGF-beta” value was 14.76 ± 2.95. In addition, in test [1], the “Blood TNF-alpha” value was 327 ± 40.7 and the “Urine albumine creatinine ratio (ALB:CRE)” value worked out at 29.86. The “Mean day 28 blood glucose Concentration (mmol/L) (SD)” value in test [1] (day 28) is on record as 30.8 (6.2) mmol/L.

In the test with Human neutrophils, `O=C(O)c1cc(NC(=O)c2cc(O)c(C(=O)O)cc2O)cc(NC(=O)c2cc(O)c(C(=O)O)cc2O)c1` [Ib-010a, 3,5-bis(2,5-dihydroxy-4-carboxybenzoylamino)benzoic acid] displayed an inhibition at 0.3 µM of 71.8% and an IC50 of 1.06 µM. In addition, the IC50 with IL-1beta (setting [2]) was 33.3 µM. The IC50 with IL-1beta (setting [3]) was determined as 33.3 µM. For the same compound, in the test on IL-17A (setting [4]), the IC50 was found to be 0.42 µM. Further, the half-maximal inhibitory concentration (IC50) with IL-17A (setting [5]) stood at 0.42 µM. In the test with IL-33 (setting [6]), the IC50 is 31.3 µM. Also, the concentration for half-maximal inhibition (IC50) in the test on IL-33 (setting [7]) came to 31.3 µM. The IC50 in the test with TNF-alpha (setting [8]) was determined as 0.31 µM. Besides, in the test on TNF-alpha (setting [9]), the IC50 amounted to 0.31 µM. For the same compound, in test [1], the “Mean day 0 blood glucose Concentration (mmol/L) (SD)” value is 25.1 (6.1) mmol/L; the “Blood BUN” value stood at 20.5 ± 3.4; the “Disease Score (kidney, H&E)” value was 6 ± 1; the “Eye area (retinal flatmount area covered by vasculature)” value is 11.8 ± 1. Further, in test [1], the “Trichrome staining (Kidney fibrosis)” value is listed as 1.97 ± 0.8, the “Blood CRP” value stood at 5915 ± 1352, the “Blood IL-6” value was determined as 102.72 ± 25.4 and the “Blood TGF-beta” value worked out at 13.17 ± 3.11. In test [1], the “Blood TNF-alpha” value came out at 395.6 ± 46.7 and the “Urine albumine creatinine ratio (ALB:CRE)” value is listed as 24.28. In addition, the “Mean day 28 blood glucose Concentration (mmol/L) (SD)” value in test [1] (day 28) is 31.1 (3.4) mmol/L. In addition, the “Blood urea nitrogen levels” value in test [1] (day 28, vs induced vehicle controls) is listed as “significantly lower than induced vehicle controls”. Moreover, in test [1] (treatment day 28), the “Urine ALB:CREA” value is listed as “reduced”.
